This note sets out measurements from patent US20190031676A1, “ANTIBACTERIAL ANNULATED PYRROLIDIN-2-ONE DERIVATIVES” (priority 2015, published 2019).

Test in all cases: Bacterial growth minimal inhibitory concentration (microdilution, cation-adjusted Mueller-Hinton Broth)
Holding throughout (type): cell-based

One assay relates to K. pneumoniae A-651. The settings on record: multiply-resistant strain (in particular quinolone-resistant); for MIC: Klebsiella pneumoniae, A651. As for the experimental part: (§1) Minimal Inhibitory Concentrations (MICs; mg/L) were determined in cation-adjusted Mueller-Hinton Broth by a microdilution method following the description given in “Methods for Dilution Antimicrobial Susceptibility Tests for Bacteria that grow Aerobically”, Approved standard, 7th ed., Clinical and Laboratory Standards Institute (CLSI) Document M7-A7, Wayne, Pa., USA (2006).
(§2) All Example compounds were tested against several Gram-positive and Gram-negative bacteria. […] K. pneumoniae A-651 is a multiply-resistant strain (in particular quinolone-resistant), while E. coli ATCC25922 and P. aeruginosa ATCC27853 are quinolone-sensitive strains.

In a further assay the test system is P. aeruginosa ATCC27853. Particulars: quinolone-sensitive strain; for MIC: Pseudomonas aeruginosa, ATCC27853. As for the experimental part: as §1, §2
For the next assay, the system named is E. coli ATCC25922. The settings on record: quinolone-sensitive strain; for MIC: Escherichia coli, ATCC25922. As for the experimental part:
as §1, §2

In brackets after ≈: the same amount, converted by molar mass.

For `C[C@@](CCN1Cc2cc(C#CC#C[C@@H]3C[C@@H](O)[C@@H](O)C3)sc2C1=O)(C(=O)NO)S(C)(=O)=O` [Example 21, (2R)-4-(2-(((1S,3R,4S)-3,4-dihydroxycyclopentyl)buta-1,3-diyn-1-yl)-6-oxo-4,6-dihydro-5H-thieno[2,3-c]pyrrol-5-yl)-N-hydroxy-2-methyl-2-(methylsulfonyl)butanamide], the “MIC for K. Pneumoniae A-651” value in the assay on K. pneumoniae A-651 turned out to be 2 µg/mL. For the same compound, in the assay on P. aeruginosa ATCC27853, the “MIC for P. aeruginosa ATCC27853” value turned out to be 1 µg/mL. In the assay on E. coli ATCC25922, the “MIC for E. coli ATCC25922” value is 0.5 µg/mL.
On to `C[C@@](CCN1Cc2cc(C#CC#C[C@H]3C[C@@H]3[C@@H](O)CO)sc2C1=O)(C(=O)NO)S(C)(=O)=O` [Example 22, (2R)-4-(2-(((1S,2S)-2-((2R)-1,2-dihydroxyethyl)cyclopropyl)buta-1,3-diyn-1-yl)-6-oxo-4,6-dihydro-5H-thieno[2,3-c]pyrrol-5-yl)-N-hydroxy-2-methyl-2-(methylsulfonyl)butanamide], for which, in the assay with K. pneumoniae A-651, the “MIC for K. Pneumoniae A-651” value came out at 1 µg/mL. Also, the “MIC for P. aeruginosa ATCC27853” value in the assay with P. aeruginosa ATCC27853 is 1 µg/mL. Besides, in the assay on E. coli ATCC25922, the “MIC for E. coli ATCC25922” value was 0.5 µg/mL.
In general, MIC refers to the smallest concentration in the dilution series that meets the test's criterion for growth inhibition. A low value points to inhibition by little substance. Regarding `C[C@@](CCN1Cc2cc(C#CC#CC3CN(CCF)C3)sc2C1=O)(C(=O)NO)S(C)(=O)=O` [Example 23, (2R)-4-(2-((1-(2-fluoroethyl)azetidin-3-yl)buta-1,3-diyn-1-yl)-6-oxo-4,6-dihydro-5H-thieno[2,3-c]pyrrol-5-yl)-N-hydroxy-2-methyl-2-(methylsulfonyl)butanamide], the values for the MIC in the assay on K. pneumoniae A-651, against P. aeruginosa ATCC27853 and against E. coli ATCC25922 were 0.25 µg/mL (≈ 0.519 µM), 1 µg/mL (≈ 2.08 µM) and 0.063 µg/mL (≈ 0.131 µM), respectively.
As to `CC(C)N1CC(C#CC#Cc2cc3c(s2)C(=O)N(CC[C@](C)(C(=O)NO)S(C)(=O)=O)C3)C1` [Example 24, (R)—N-hydroxy-4-(2-((1-isopropylazetidin-3-yl)buta-1,3-diyn-1-yl)-6-oxo-4,6-dihydro-5H-thieno[2,3-c]pyrrol-5-yl)-2-methyl-2-(methylsulfonyl)butanamide], the MIC is 0.5 µg/mL (≈ 1.05 µM) in the assay on K. pneumoniae A-651, 1 µg/mL (≈ 2.09 µM) against P. aeruginosa ATCC27853 and 0.25 µg/mL (≈ 0.523 µM) against E. coli ATCC25922.
On the same counts, the results for `CC(C)(O)CN1CC(C#CC#Cc2cc3c(s2)C(=O)N(CC[C@](C)(C(=O)NO)S(C)(=O)=O)C3)C1` [Example 25, (2R)—N-hydroxy-4-(2-((1-(2-hydroxy-2-methylpropyl)azetidin-3-yl)buta-1,3-diyn-1-yl)-6-oxo-4,6-dihydro-5H-thieno[2,3-c]pyrrol-5-yl)-2-methyl-2-(methylsulfonyl)butanamide] are 1 µg/mL (≈ 1.97 µM), 1 µg/mL (≈ 1.97 µM) and 1 µg/mL (≈ 1.97 µM).
As for `C[C@@](CCN1Cc2cc(C#Cc3ccc(C4CN(C5COC5)C4)cc3)sc2C1=O)(C(=O)NO)S(C)(=O)=O` [Example 26, (2R)—N-hydroxy-2-methyl-2-(methylsulfonyl)-4-(2-((4-(1-(oxetan-3-yl)azetidin-3-yl)phenyl)ethynyl)-6-oxo-4,6-dihydro-H-thieno[2,3-c]pyrrol-5-yl)butanamide], the “MIC for K. Pneumoniae A-651” value in the assay with K. pneumoniae A-651 came out at 0.25 µg/mL. In addition, the “MIC for P. aeruginosa ATCC27853” value with P. aeruginosa ATCC27853 turned out to be 2 µg/mL. In the assay on E. coli ATCC25922, the “MIC for E. coli ATCC25922” value is 0.25 µg/mL.
In the case of `C[C@@](CCN1Cc2cc(C#CC#CC3CN(C4CCOCC4)C3)sc2C1=O)(C(=O)NO)S(C)(=O)=O` [Example 27, (2R)—N-hydroxy-2-methyl-2-(methylsulfonyl)-4-(6-oxo-2-((1-(tetrahydro-2H-pyran-4-yl)azetidin-3-yl)buta-1,3-diyn-1-yl)-4,6-dihydro-5H-thieno[2,3-c]pyrrol-5-yl)butanamide], the MIC against K. pneumoniae A-651 amounted to 0.25 µg/mL (≈ 0.481 µM); with P. aeruginosa ATCC27853 it was 1 µg/mL (≈ 1.92 µM); against E. coli ATCC25922 it was 0.125 µg/mL (≈ 0.241 µM).
`C[C@@](CCN1Cc2cc(C#CC#CC3CN(CC4COC4)C3)sc2C1=O)(C(=O)NO)S(C)(=O)=O` [Example 28, (2R)—N-hydroxy-2-methyl-2-(methylsulfonyl)-4-(2-((1-(oxetan-3-ylmethyl)azetidin-3-yl)buta-1,3-diyn-1-yl)-6-oxo-4,6-dihydro-5H-thieno[2,3-c]pyrrol-5-yl)butanamide]: the MIC was 0.5 µg/mL (≈ 0.989 µM) with K. pneumoniae A-651, 2 µg/mL (≈ 3.96 µM) in the assay on P. aeruginosa ATCC27853 and 0.25 µg/mL (≈ 0.494 µM) against E. coli ATCC25922.
For the compound `C[C@@](CCN1Cc2cc(C#Cc3ccc(C4CN(C5COC5)C4)cc3)sc2C1=O)(C(=O)NO)S(C)(=O)=O` [Example 29, (2R)—N-hydroxy-2-methyl-2-(methylsulfonyl)-4-(2-((4-(1-(oxetan-3-yl)azetidin-3-yl)phenyl)ethynyl)-6-oxo-4,6-dihydro-H-thieno[2,3-c]pyrrol-5-yl)butanamide], in the assay with K. pneumoniae A-651, the “MIC for K. Pneumoniae A-651” value worked out at 1 µg/mL. In the assay on P. aeruginosa ATCC27853, the “MIC for P. aeruginosa ATCC27853” value stood at 2 µg/mL. In addition, the “MIC for E. coli ATCC25922” value in the assay on E. coli ATCC25922 was 0.25 µg/mL.
As to `C[C@@](CCN1Cc2cc(C#CC#C[C@H]3C[C@@H]3CN3CC(F)C3)sc2C1=O)(C(=O)NO)S(C)(=O)=O` [Example 30, (2R)-4-(2-(((1S,2S)-2-((3-fluoroazetidin-1-yl)methyl)cyclopropyl)buta-1,3-diyn-1-yl)-6-oxo-4,6-dihydro-5H-thieno[2,3-c]pyrrol-5-yl)-N-hydroxy-2-methyl-2-(methylsulfonyl)butanamide], the MIC in the assay on K. pneumoniae A-651 came to 1 µg/mL (≈ 1.97 µM); in the assay on P. aeruginosa ATCC27853, 2 µg/mL (≈ 3.94 µM); against E. coli ATCC25922, 0.125 µg/mL (≈ 0.246 µM).
In the case of `C[C@@](CCN1Cc2cc(C#CC#CC3CN([C@H]4C[C@@H](O)C4)C3)sc2C1=O)(C(=O)NO)S(C)(=O)=O` [Example 31, (2R)—N-hydroxy-4-(2-((1-((1s,3s)-3-hydroxycyclobutyl)azetidin-3-yl)buta-1,3-diyn-1-yl)-6-oxo-4,6-dihydro-5H-thieno[2,3-c]pyrrol-5-yl)-2-methyl-2-(methylsulfonyl)butanamide], in the assay with K. pneumoniae A-651, the “MIC for K. Pneumoniae A-651” value is 0.5 µg/mL. Besides, in the assay with P. aeruginosa ATCC27853, the “MIC for P. aeruginosa ATCC27853” value turned out to be 1 µg/mL. For the same compound, the “MIC for E. coli ATCC25922” value in the assay with E. coli ATCC25922 was found to be 0.5 µg/mL.
With `C[C@@](CCN1Cc2cc(C#CC#CC3CN(C4CC(O)C4)C3)sc2C1=O)(C(=O)NO)S(C)(=O)=O` (stereo partly drawn) [Example 32, (2R)—N-hydroxy-4-(2-((1-((1r,3r)-3-hydroxycyclobutyl)azetidin-3-yl)buta-1,3-diyn-1-yl)-6-oxo-4,6-dihydro-5H-thieno[2,3-c]pyrrol-5-yl)-2-methyl-2-(methylsulfonyl)butanamide], the “MIC for K. Pneumoniae A-651” value in the assay on K. pneumoniae A-651 was 0.5 µg/mL. The “MIC for P. aeruginosa ATCC27853” value with P. aeruginosa ATCC27853 amounted to 1 µg/mL. In the assay on E. coli ATCC25922, the “MIC for E. coli ATCC25922” value was found to be 0.25 µg/mL.
As to `C[C@@](CCN1Cc2cc(C#Cc3ccc(CCO)cc3)ccc2C1=O)(C(=O)NO)S(C)(=O)=O` [Example 33, (2R)—N-hydroxy-4-(5-((4-(2-hydroxyethyl)phenyl)ethynyl)-1-oxoisoindolin-2-yl)-2-methyl-2-(methylsulfonyl)butanamide], the results for the MIC against K. pneumoniae A-651, in the assay on P. aeruginosa ATCC27853 and against E. coli ATCC25922 were 0.5 µg/mL (≈ 1.06 µM), 2 µg/mL (≈ 4.25 µM) and 0.125 µg/mL (≈ 0.266 µM), respectively.
On to `C[C@@](CCN1Cc2cc(C#CC#CC3CN(C(=O)OCCCO)C3)sc2C1=O)(C(=O)NO)S(C)(=O)=O` [Example 34, 3-hydroxypropyl (2R)-3-((5-(4-(hydroxyamino)-3-methyl-3-(methylsulfonyl)-4-oxobutyl)-6-oxo-5,6-dihydro-4H-thieno[2,3-c]pyrrol-2-yl)buta-1,3-diyn-1-yl)azetidine-1-carboxylate], for which the “MIC for K. Pneumoniae A-651” value against K. pneumoniae A-651 was 0.5 µg/mL. For the same compound, in the assay on P. aeruginosa ATCC27853, the “MIC for P. aeruginosa ATCC27853” value stood at 1 µg/mL. In addition, in the assay on E. coli ATCC25922, the “MIC for E. coli ATCC25922” value is 0.25 µg/mL.
